A melting point compilation (Tetko et al.; mined from patent text by program, amines drawn as free bases though some values may be those of a salt)

Compound | melting point
CCOC(=O)CCCN(C(=O)CN(C(=O)c1ccc(Cl)cc1)c1c(C)cccc1C)c1c(C)cccc1C | 150 to 151 °C
COc1cc(C=C2SC(N3CCCC3)=NC2=O)cc(-c2ccc(O)c(C34CC5CC(CC(C5)C3)C4)c2)c1O | 353 to 355 °C
COc1cc(C(=O)O)cc(C(F)(F)F)c1 | 131 to 135 °C
COc1cc2c(cc1OC)CN(CCCCNC(=O)c1cc(C)ccc1OCCF)CC2 | 131 to 133 °C
COc1ccc(Sc2ncc(Cl)cn2)cc1 | 75 °C
Cc1ccc2cc(NS(=O)(=O)c3cccc(Cl)c3C)ccc2n1 | 178 °C
CCC(=O)NN=C(Nc1ccc([N+](=O)[O-])cc1)c1ccc(OC)cc1 | 200 °C
CCOC(=O)c1nc2c(Cl)nc3cc(C(F)(F)F)ccc3n2c1C | 182 to 183 °C
O=C1CC(c2csc(-n3ccnc3)n2)=Nc2ccc(-c3ccc(F)cc3)cc2N1 | 214 °C
Nc1ccc(-c2cc3[nH]c4ccc(O)cc4c3c3c2C(=O)NC3=O)cc1 | 256 to 258 °C
COc1cc(N)cc(C#N)c1 | 81 to 85 °C
Cn1c(=O)c2[nH]c(C=Cc3cccc(N)c3)nc2n(C)c1=O | > 300 °C
CCn1c(=O)c2c(nc(/C=C/c3cc(OC)c(OC(C)=O)c(OC)c3)n2C)n(CC)c1=O | 248 to 249 °C
CCN(CC)C(=O)c1ccoc1-c1ccc2ccccc2c1 | 92 to 93 °C
COC(=O)CCC(=O)Nc1cc(Cl)ccc1C(=O)OC | 80 to 84 °C
CCCCc1nn(Cc2ccc(C#N)cc2)c2ccccc2c1=O | 180 °C
CCONS(=O)(=O)c1ccc(C)cc1 | 94 to 95 °C
N#CC1(c2ccccc2Oc2ccc(Cl)cc2)CCNCC1 | 128 to 130 °C
O=c1[nH]c(=O)n(C2CC(F)C(CO)O2)cc1C(I)=CI (stereo not given) | 112 °C
CNC(=O)c1ccc(F)c(Cl)c1 | 108 to 110 °C
CC(O)C#Cc1ccc(Cl)cc1 (stereo not given) | 71 to 72 °C
O=C(Nc1ccccc1)O[C@@H]1CN=C(c2ccc3ccccc3c2)O[C@H]1c1ccccc1 (racemic) | 163 °C

Compound | melting point
CCC1c2ccc(C)n2-c2ccc(F)cc2N1S(=O)(=O)c1ccc(O)c(C)c1 (stereo not given) | 199 to 201 °C
Cc1c(C(=O)Nc2ccc(N3CCOCC3)c(C#N)c2)cnn1-c1ccc(F)cc1 | 201 to 202 °C
COc1cc(CCC(=O)C2CCCC2=O)cc(OS(=O)(=O)c2ccc(C)cc2)c1OC (stereo not given) | 84 °C
CCCCSc1nnc(N(C)C(=O)NC)s1 | 135 to 137 °C
O=[N+]([O-])c1cc(C(F)(F)F)ccc1-c1ccno1 | 62 to 63 °C
O=[N+]([O-])c1oc2ccccc2c1-n1ccnc1 | 147 to 149 °C
CC(C)CCNC(=O)c1cc2c(Nc3cccc(Cl)c3)ncnc2[nH]1 | 304 to 306 °C
CCOC(=O)c1[nH]c2ccc(Cl)cc2c1-c1ccccc1F | 191 to 193 °C
CC(C)CN(Cc1nc(-c2ncn3c2CN(C)C(=O)c2c(Cl)cccc2-3)no1)CC(C)C | 125 to 128 °C
COC(=O)CCCc1cc2nc(Cl)ccc2n1S(=O)(=O)c1ccc(F)cc1 | 119 °C
CC1=NN(CCN2CCOCC2)S(=O)(=O)c2sc(S(N)(=O)=O)cc21 | 160 to 162 °C
CC(=O)N=c1sc(C)cn1CC(=O)c1cccs1 | 187 to 188 °C
Cc1cc2cc(CN3CCCC3)cnc2cc1NC(=O)c1ccc(-c2cc3ccccc3o2)cc1 | 219 °C
Oc1ccc(-c2cnc3cnc(-c4cccc(O)c4)nc3c2)cc1 | > 268 °C
COC(=O)COc1c(I)cc(-c2c3ccccc3cc3sc4ccccc4c23)cc1I | 203 to 205 °C
Cc1ccc2oc(=O)c(NC(=O)Nc3ccc(F)cc3F)c(-c3ccccc3C)c2c1 | 213 to 214 °C
COc1ccc(N2CCN(c3c(C)c(C)c4c(c3C)CC(C)(COC=O)O4)CC2)cc1 (stereo not given) | 120 to 124 °C
CCn1c(=O)c(=O)[nH]c2cc([N+](=O)[O-])c(-n3cccc3)cc21 | > 300 °C
COC(=O)c1ccc(-c2nc(COc3ccc(CO)cc3OC)c(C)o2)cc1 | 170 to 171 °C
Cc1c(S(C)(=O)=O)ccc(C(=O)C2SCCCC2=O)c1Cl (stereo not given) | 142 to 144 °C
Cc1oc(-c2ccccc2)nc1CCOc1ccc(C[C@H](NC(=O)C=Cc2ccc(F)cc2F)C(=O)O)cc1Br | 221 to 223 °C
CC(C)CC(=O)C1CCC2C3CN(C(C)(C)C)C4=CC(=O)CCC4(C)C3CCC12CC(=O)O (stereo not given) | 169 to 171 °C

Compound | melting point
CC(=O)C1CCC2C3CC=C4CCCCC4(C)C3CCC12C (stereo not given) | 207 to 209 °C
CN(C)CC1CCc2c(c3cc(C(N)=O)ccc3n2C)C1=O (stereo not given) | 171 to 173 °C
CCCc1c(CSc2ncccc2OCC(=O)O)ccc(C(C)=O)c1O | 157 °C
[N-]=[N+]=CC(=O)c1cccc(S(N)(=O)=O)c1 | 142 °C
CCOC(=O)c1scc2c1ccc1cn[nH]c12 | 124 to 125 °C
COc1c2c(cc3ccncc13)OCO2 | 144 to 145 °C
O=C(c1ccc(-c2ccc(Cl)cc2)o1)N1CCN(c2cccc(Br)c2)CC1 | 130 °C
O=C1C(O)=C([N+](=O)[O-])C(=O)c2ccc(Br)cc21 | 172 °C
NCc1cc(Cl)c(N=C2NCCN2)c(Cl)c1 | 205 to 206 °C
Fc1ccc(N2CCN(Cc3ccc(CCl)cc3)CC2)cc1 | 81 to 83 °C
O=C(O)C1CCc2c([nH]c3ccc(Cl)cc23)C1 (stereo not given) | 196 to 197 °C
CCN(C(=O)C(C)CSC)c1sc(-c2cccnc2)nc1Cl (stereo not given) | 79 to 81 °C
O=C(Nc1n[nH]c2cc(Cl)ccc12)c1ccccn1 | 177 °C
CN1CCN(C(=O)c2cnn(C)c2C(=O)Nc2ccn3nc(-c4cccc(F)c4)nc3c2)CC1 | 224 to 227 °C
CCC(=CC(CNC(C)=O)=NO)C(C)[N+](=O)[O-] (stereo not given) | 124 to 125 °C
Clc1ccc2c(C=Cc3ccccc3)ccnc2c1 | 120 to 122 °C
CSC(=Nc1ccccc1)Nc1ccccc1 | 105 to 106 °C
O=C1NC(=O)c2c1c(-c1ccccc1)cc1c2c2cc(O)ccc2n1CCCn1ccnc1 | 309 to 311 °C
O=C(NC(=O)c1ccc(C(F)(F)F)cc1)Nc1ccc(Cl)cc1 | 260 °C
CCOC(=O)Cc1c(CCc2ccc(OC)cc2)oc2ccc(C#N)cc12 | 85 to 86 °C
O=C(Nc1cc(-c2ccnc3c(C(=O)c4cccs4)cnn23)ccc1F)c1ccccc1F | 214 to 216 °C
CCOC(=O)N(CC)c1cccc(-c2ccc3nnc(C)n3n2)c1 | 132 to 135 °C

More lines, now with the values ahead:

melting point | Compound
225 to 230 °C | O=C(Nc1ccc(C(=O)N2Cc3ccccc3Cc3ccccc32)cc1)c1cc(Cl)cc(Cl)c1Cl
120 to 121 °C | COc1cc2c(cc1OC)C(C)N(C(=O)Cc1cccc([N+](=O)[O-])c1)CC2 (stereo not given)
147 to 148 °C | CCCCSc1cc(C(=O)O)cc([N+](=O)[O-])c1-c1ccccc1
236 °C | CC(C)(C)OC(=O)[C@H]1CC[C@H](c2ccccc2)N1C(=O)CNC(=O)Nc1cccc(C(=O)O)c1 (racemic)
116 to 127 °C | CCCCCN(C(=O)OC(C)(C)C)c1nc(N(C)Cc2ccccc2)c2ncn(CC(=O)O)c2n1
224 °C | CC1(C)CCC(C)(C)c2cc(C(=O)c3ccc4cc(C(=O)O)ccc4c3)ccc21
132 to 133 °C | O=C(NC1CC1)[C@@H]1CN(C(=O)OCc2ccccc2)C[C@H]1O
208 to 210 °C | Nc1ccn(C2CC(O)C(CO)O2)c(=O)n1 (stereo not given)
128 to 130 °C | COc1cccc(-c2nc(-c3ccccc3COC(=O)c3ccccc3)n[nH]2)c1
179 to 180 °C | COC1OCC[C@@H]1NC(=O)[C@H](CC1CCCCC1)NC(=O)CNC(=O)COc1ccc2c(c1)Nc1ccccc1S2 (stereo not given in full)
58 °C | CC(COc1ccccc1)OS(C)(=O)=O (stereo not given)
113 to 114 °C | O=C(NCc1ccccc1)c1ccc(Cl)nc1
142 °C | CCC(Nc1ccccc1C(=O)O)c1nccnc1OCc1ccccc1 (stereo not given)
149 to 151 °C | O=C(NCC(C=C1CCCCC1[N+](=O)[O-])=NO)c1cccnc1 (stereo not given)
> 300 °C | O=C1Nc2ccc(C(F)(F)F)cc2C1c1ncnc2c1cnn2C1CCCC1 (stereo not given)
236 to 240 °C | C#CCC1(c2ccccc2)Cc2cc(OCC(=O)O)c(Cl)c(Cl)c2C1=O (stereo not given)
85.5 to 86.5 °C | O=C1OCN(C(=O)OCc2ccccc2)[C@H]1Cc1ccccc1

melting point | Compound
161 to 162 °C | N=C(Nc1ccc(Cl)c(Cl)c1)Nc1ncccc1OCc1ccccc1
173 to 174 °C | N#CCn1nnc(NC(=O)C(c2ccccc2)c2ccccc2)n1
252 to 255 °C | O=C(NC1CC2CCC1C2)n1cc(F)c(=O)[nH]c1=O (stereo not given)
127 to 129 °C | CCOC(=O)C1CN(Cc2ccccc2)C(=O)C(=C2SC=CS2)C1=O (stereo not given)
188 to 189 °C | O=S(=O)(Cc1ccccc1)c1nc2ccc(O)cc2s1
136 °C | CCOC(=O)c1ccc(Cn2c(NC3CCN(C(=O)OCC)CC3)nc3ccccc32)o1
149 to 150 °C | Cn1nc(C(=O)O)cc1-c1ccccc1
122 to 126 °C | CC1(C)C(=O)N(Cc2ccccc2Cl)OC1O (stereo not given)
78 to 80 °C | CN1C(=O)CC[C@]2(C)c3ccc(SCc4nc5ccccc5s4)cc3CC[C@@H]12
193 to 195 °C | O=C(CC(c1ccccc1)(c1ccccc1)c1ccccc1)Nc1ccc(N2CCNCC2)cc1
353 to 355 °C | NC(=O)c1nc(-c2cccc(O)c2)nc2c1[nH]c(=O)n2[C@@H]1CCOC1
178 to 180 °C | O=C(O)c1ccc(Cn2cc(C3c4ccccc4C=Cc4ccccc43)c(=S)[nH]c2=O)o1
103 to 108 °C | CNC(=O)C(=NOC)c1ccccc1COc1ccc(Cl)c(C(=O)OC(C)(C)C)n1
124 to 125 °C | O=C1CCN(Cc2ccccc2)CC1C1c2ccccc2Oc2ccccc21 (stereo not given)
236 °C | COc1ccccc1C1(O)C(O)CC(c2ccccc2)(c2ccccc2)C2CN(Cc3ccccc3)CC21 (stereo not given)
105 to 107 °C | CC(=Cc1ccccc1)C(C#N)=NOS(C)(=O)=O
240 °C | CCOc1cccc(CNC(=O)c2nc3scc(COCc4ccc(C(=O)O)cc4)c3c(=O)[nH]2)c1
